From US11046710B2, “Sulfonamide compounds” (DAIICHI SANKYO COMPANY, LIMITED, priority 2016, dated 2021)
pIC50: −log10 of the molar value.

target: human TNAP (Homo sapiens (Human), UniProt P05186); experiment: Inhibitory test of TNAP activity (pNPP substrate, p-nitrophenol production); type: biochemical; conditions: human TNAP from transfected COS1 culture supernatant, 60 minutes at room temperature
Protocol: COS1 cells (DS Pharma Biomedical Co., Ltd.) were transfected with human TNAP (OriGene Technologies, Inc.) using Lipofectamine LTX & Plus reagent (Invitrogen Corp.). On the next day, the medium was replaced with a fresh medium, and the cells were cultured in an incubator for 3 days. After 3 days, the culture supernatant was collected and concentrated by centrifugation at 5000 G for 30 minutes using Amicon 14, 10^4 cut (Merck Millipore). The concentrated culture supernatant was dialyzed against 5 L of 50 mM Tris/200 mM NaCl/1 mM MgCl2/20 μM ZnCl2 twice and used as an enzyme source (enzyme solution). The substrate pNPP (ProteoChem Inc.) was adjusted to 3.1 mM with Milli-Q water, and a solution of each test compound dissolved in dimethyl sulfoxide (DMSO; Wako Pure Chemical Industries, Ltd.) by 6 serial dilutions at a 5-fold common ratio from 100 μM, or DMSO was added thereto at a final concentration of 1% by volume. The enzyme solution adjusted to 2 μg/mL with an assay buffer (200 mM Tris/2 mM MgCl2/0.04 mM ZnCl2/0.01% Tween 20) was added in the same amount of the substrate solution and incubated at room temperature for 60 minutes. Then, the absorbance (ABS: 405 nm) was measured using a microplate reader (model plus 384, Molecular Devices, LLC), and the concentration of produced p-nitrophenol was calculated.

Chain of human TNAP (P05186 18-524): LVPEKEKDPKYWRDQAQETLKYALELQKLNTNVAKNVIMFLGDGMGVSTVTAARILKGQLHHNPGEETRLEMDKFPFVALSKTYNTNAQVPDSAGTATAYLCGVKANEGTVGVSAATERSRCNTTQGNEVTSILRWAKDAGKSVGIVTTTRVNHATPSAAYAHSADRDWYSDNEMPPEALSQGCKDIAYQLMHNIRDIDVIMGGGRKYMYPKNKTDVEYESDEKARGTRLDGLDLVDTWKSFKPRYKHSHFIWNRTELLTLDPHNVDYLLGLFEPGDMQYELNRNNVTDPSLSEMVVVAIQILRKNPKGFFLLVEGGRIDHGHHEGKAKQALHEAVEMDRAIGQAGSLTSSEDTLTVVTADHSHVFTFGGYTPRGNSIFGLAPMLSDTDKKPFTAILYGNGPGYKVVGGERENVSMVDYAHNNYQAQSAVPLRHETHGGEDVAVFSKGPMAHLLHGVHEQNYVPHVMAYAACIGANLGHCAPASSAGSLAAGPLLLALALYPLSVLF

Compound | pIC50
COc1ccc(Cl)cc1S(=O)(=O)Nc1cnc2c(c1)-c1nnc(C)n1CCO2 [Example 1, 5-chloro-2-methoxy-N-(3-methyl-5,6-dihydropyrido[3,2-f][1,2,4]triazolo[4,3-d][1,4]oxazepin-10-yl)benzenesulfonamide] | 8.59
CCc1nnc2n1CCOc1ncc(NS(=O)(=O)c3cc(Cl)ccc3OC)cc1-2 [Example 3, 5-chloro-N-(3-ethyl-5,6-dihydropyrido[3,2-f][1,2,4]triazolo[4,3-d][1,4]oxazepin-10-yl)-2-methoxybenzenesulfonamide] | 8.62
COc1ccc(Cl)cc1S(=O)(=O)Nc1cnc2c(c1)-c1ccnn1CCO2 [Example 7, 5-chloro-N-(5,6-dihydropyrazolo[1,5-d]pyrido[3,2-f][1,4]oxazepin-10-yl)-2-methoxybenzenesulfonamide] | 8.19
CCOc1ccc(F)cc1S(=O)(=O)Nc1cnc2c(c1)-c1ccnn1CCO2 [Example 9, N-(5,6-dihydropyrazolo[1,5-d]pyrido[3,2-f][1,4]oxazepin-10-yl)-2-ethoxy-5-fluorobenzenesulfonamide] | 8.47
CCOc1ncc(F)cc1S(=O)(=O)Nc1cnc2c(c1)-c1ccnn1CCO2 [Example 14, N-(5,6-dihydropyrazolo[1,5-d]pyrido[3,2-f][1,4]oxazepin-10-yl)-2-ethoxy-5-fluoropyridine-3-sulfonamide] | 8.44
CCOc1ccc(F)cc1S(=O)(=O)Nc1cnc2c(c1)-c1ccnn1[C@@H](C)CO2 [Example 18, 2-ethoxy-5-fluoro-N-[(5S)-5-methyl-5,6-dihydropyrazolo[1,5-d]pyrido[3,2-f][1,4]oxazepin-10-yl]benzenesulfonamide] | 8.55
COc1ncc(Cl)cc1S(=O)(=O)Nc1cnc2c(c1)-c1ccnn1[C@@H](C)CO2 [Example 21, 5-chloro-2-methoxy-N-[(5S)-5-methyl-5,6-dihydropyrazolo[1,5-d]pyrido[3,2-f][1,4]oxazepin-10-yl]pyridine-3-sulfonamide] | 8.52
CCOc1ncc(F)cc1S(=O)(=O)Nc1cnc2c(c1)-c1ccnn1[C@@H](C)CO2 [Example 24, 2-ethoxy-5-fluoro-N-[(5S)-5-methyl-5,6-dihydropyrazolo[1,5-d]pyrido[3,2-f][1,4]oxazepin-10-yl]pyridine-3-sulfonamide] | 8.64
COc1ccc(F)cc1S(=O)(=O)Nc1cnc2c(c1)C(=O)N1C[C@@H](O)C[C@@H]1CO2 [Example 31, 5-fluoro-N-[(8S,9aR)-8-hydroxy-5-oxo-8,9,9a,10-tetrahydro-5H,7H-pyrido[3,2-f]pyrrolo[2,1-c][1,4]oxazepin-3-yl]-2-methoxybenzenesulfonamide] | 8.92
O=C1c2cc(NS(=O)(=O)c3cc(Cl)ccc3OC(F)(F)F)cnc2OC[C@H]2C[C@H](O)CN12 [Example 32, 5-chloro-N-[(8S,9aR)-8-hydroxy-5-oxo-8,9,9a,10-tetrahydro-5H,7H-pyrido[3,2-f]pyrrolo[2,1-c][1,4]oxazepin-3-yl]-2-(trifluoromethoxy)benzenesulfonamide] | 9.05

Second part, the molecule after the results:

pIC50 | Compound
8.55 | COc1ccc(Cl)cc1S(=O)(=O)Nc1cnc2c(c1)-c1nnc(C(C)C)n1CCO2 [Example 5, 5-chloro-2-methoxy-N-[3-(propan-2-yl)-5,6-dihydropyrido[3,2-f][1,2,4]triazolo[4,3-d][1,4]oxazepin-10-yl]benzenesulfonamide]
8.23 | COc1ccc(Cl)cc1S(=O)(=O)Nc1cnc2c(c1)-c1nccn1CCO2 [Example 6, 5-chloro-N-(5,6-dihydroimidazo[1,2-d]pyrido[3,2-f][1,4]oxazepin-10-yl)-2-methoxybenzenesulfonamide]
7.90 | COCCOc1ccc(F)cc1S(=O)(=O)Nc1cnc2c(c1)-c1ccnn1CCO2 [Example 11, N-(5,6-dihydropyrazolo[1,5-d]pyrido[3,2-f][1,4]oxazepin-10-yl)-5-fluoro-2-(2-methoxyethoxy)benzenesulfonamide]
8.07 | COc1ncc(Cl)cc1S(=O)(=O)Nc1cnc2c(c1)-c1ccnn1CCO2 [Example 12, 5-chloro-N-(5,6-dihydropyrazolo[1,5-d]pyrido[3,2-f][1,4]oxazepin-10-yl)-2-methoxypyridine-3-sulfonamide]
8.29 | CCOc1ncc(Cl)cc1S(=O)(=O)Nc1cnc2c(c1)-c1ccnn1CCO2 [Example 13, 5-chloro-N-(5,6-dihydropyrazolo[1,5-d]pyrido[3,2-f][1,4]oxazepin-10-yl)-2-ethoxypyridine-3-sulfonamide]
8.46 | COc1ccc(Cl)cc1S(=O)(=O)Nc1cnc2c(c1)-c1ccnn1[C@@H](C)CO2 [Example 16, 5-chloro-2-methoxy-N-[(5S)-5-methyl-5,6-dihydropyrazolo[1,5-d]pyrido[3,2-f][1,4]oxazepin-10-yl]benzenesulfonamide]
8.16 | COc1ccc(Cl)cc1S(=O)(=O)Nc1cnc2c(c1)-c1ccnn1[C@H](C)CO2 [Example 17, 5-chloro-2-methoxy-N-[(5R)-5-methyl-5,6-dihydropyrazolo[1,5-d]pyrido[3,2-f][1,4]oxazepin-10-yl]benzenesulfonamide]
8.38 | CCOc1ccc(F)cc1S(=O)(=O)Nc1cnc2c(c1)-c1ccnn1[C@H](C)CO2 [Example 20, 2-ethoxy-5-fluoro-N-[(5R)-5-methyl-5,6-dihydropyrazolo[1,5-d]pyrido[3,2-f][1,4]oxazepin-10-yl]benzenesulfonamide]
8.24 | COc1ncc(Cl)cc1S(=O)(=O)Nc1cnc2c(c1)-c1ccnn1[C@H](C)CO2 [Example 23, 5-chloro-2-methoxy-N-[(5R)-5-methyl-5,6-dihydropyrazolo[1,5-d]pyrido[3,2-f][1,4]oxazepin-10-yl]pyridine-3-sulfonamide]
7.53 | COc1ccc(Cl)cc1S(=O)(=O)Nc1cnc2c(c1)-n1nccc1CCO2 [Example 26, 5-chloro-N-(4,5-dihydropyrazolo[1,5-d]pyrido[2,3-b][1,4]oxazepin-9-yl)-2-methoxybenzenesulfonamide]
7.88 | COc1ccc(Cl)cc1S(=O)(=O)Nc1cnc2c(c1)C(=O)N1CCC[C@H]1CO2 [Example 27, 5-chloro-2-methoxy-N-[(9aS)-5-oxo-8,9,9a,10-tetrahydro-5H,7H-pyrido[3,2-f]pyrrolo[2,1-c][1,4]oxazepin-3-yl]benzenesulfonamide]
8.92 | COc1ccc(Cl)cc1S(=O)(=O)Nc1cnc2c(c1)C(=O)N1CCC[C@@H]1CO2 [Example 28, 5-chloro-2-methoxy-N-[(9aR)-5-oxo-8,9,9a,10-tetrahydro-5H,7H-pyrido[3,2-f]pyrrolo[2,1-c][1,4]oxazepin-3-yl]benzenesulfonamide]
8.15 | COc1ccc(Cl)cc1S(=O)(=O)Nc1cnc2c(c1)C(=O)N1C[C@H](O)C[C@H]1CO2 [Example 29, 5-chloro-N-[(8R,9aS)-8-hydroxy-5-oxo-8,9,9a,10-tetrahydro-5H,7H-pyrido[3,2-f]pyrrolo[2,1-c][1,4]oxazepin-3-yl]-2-methoxybenzenesulfonamide]
9.05 | COc1ccc(Cl)cc1S(=O)(=O)Nc1cnc2c(c1)C(=O)N1C[C@@H](O)C[C@@H]1CO2 [Example 30, 5-chloro-N-[(8S,9aR)-8-hydroxy-5-oxo-8,9,9a,10-tetrahydro-5H,7H-pyrido[3,2-f]pyrrolo[2,1-c][1,4]oxazepin-3-yl]-2-methoxybenzenesulfonamide]
